In article PMC4855151 (Scientific Reports, 2016):

Biological target: Cut2 (cutinase 2) (Pyricularia oryzae, UniProt G4MZV6)
Conditions: 12.5 nM Cut2, 0-8 mM substrate; assay buffer 25 mM NaH2PO4, pH 7.2

Cut2 (cutinase 2), sequence (G4MZV6 19-214 limits assumed): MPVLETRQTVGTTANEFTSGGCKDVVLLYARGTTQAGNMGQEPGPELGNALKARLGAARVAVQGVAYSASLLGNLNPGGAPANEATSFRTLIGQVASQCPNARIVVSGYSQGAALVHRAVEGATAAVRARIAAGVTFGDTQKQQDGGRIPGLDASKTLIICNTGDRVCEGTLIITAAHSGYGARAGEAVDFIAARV

CCCC(=O)Oc1ccc([N+](=O)[O-])cc1 [p-nitrophenyl butyrate]
kcat/Km: We determined kcat/Km for our recombinant Cut2 with p-nitrophenylbutyrate as substrate
